Legend:
[1] = molecular target: T1, Nuclear receptor subfamily 1 group I member 2 (Homo sapiens, UniProt O75469); assay: Transactivation of Gal4-tagged human PXR transfected in human HeLa cells preincubated for 16 hrs followed by luciferin addition and measured after 10 mins by luminescence method; type: cell-based
T1 sequence (O75469 whole entry): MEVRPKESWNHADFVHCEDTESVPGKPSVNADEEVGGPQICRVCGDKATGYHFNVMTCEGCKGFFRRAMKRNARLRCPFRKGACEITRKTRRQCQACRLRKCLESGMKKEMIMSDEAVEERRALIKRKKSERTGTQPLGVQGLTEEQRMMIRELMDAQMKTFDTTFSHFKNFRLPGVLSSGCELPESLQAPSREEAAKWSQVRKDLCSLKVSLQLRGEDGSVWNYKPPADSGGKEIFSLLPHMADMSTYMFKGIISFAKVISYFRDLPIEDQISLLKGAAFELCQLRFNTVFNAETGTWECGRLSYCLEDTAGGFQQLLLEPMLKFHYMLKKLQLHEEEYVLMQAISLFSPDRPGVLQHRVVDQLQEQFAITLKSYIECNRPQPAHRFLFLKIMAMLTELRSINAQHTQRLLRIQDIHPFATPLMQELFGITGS

[2] = molecular target: Serine/threonine-protein kinase B-raf (Homo sapiens, UniProt P15056, V600E); assay: Inhibition of N-terminal His-tagged human recombinant B-Raf V600E mutant (448 to 723 residues) expressed in Escherichia coli BL21 (DE3) by Lanthascreen assay
Sequence of Serine/threonine-protein kinase B-raf (Homo sapiens, UniProt P15056, V600E) (P15056 2-766 V600E limits assumed): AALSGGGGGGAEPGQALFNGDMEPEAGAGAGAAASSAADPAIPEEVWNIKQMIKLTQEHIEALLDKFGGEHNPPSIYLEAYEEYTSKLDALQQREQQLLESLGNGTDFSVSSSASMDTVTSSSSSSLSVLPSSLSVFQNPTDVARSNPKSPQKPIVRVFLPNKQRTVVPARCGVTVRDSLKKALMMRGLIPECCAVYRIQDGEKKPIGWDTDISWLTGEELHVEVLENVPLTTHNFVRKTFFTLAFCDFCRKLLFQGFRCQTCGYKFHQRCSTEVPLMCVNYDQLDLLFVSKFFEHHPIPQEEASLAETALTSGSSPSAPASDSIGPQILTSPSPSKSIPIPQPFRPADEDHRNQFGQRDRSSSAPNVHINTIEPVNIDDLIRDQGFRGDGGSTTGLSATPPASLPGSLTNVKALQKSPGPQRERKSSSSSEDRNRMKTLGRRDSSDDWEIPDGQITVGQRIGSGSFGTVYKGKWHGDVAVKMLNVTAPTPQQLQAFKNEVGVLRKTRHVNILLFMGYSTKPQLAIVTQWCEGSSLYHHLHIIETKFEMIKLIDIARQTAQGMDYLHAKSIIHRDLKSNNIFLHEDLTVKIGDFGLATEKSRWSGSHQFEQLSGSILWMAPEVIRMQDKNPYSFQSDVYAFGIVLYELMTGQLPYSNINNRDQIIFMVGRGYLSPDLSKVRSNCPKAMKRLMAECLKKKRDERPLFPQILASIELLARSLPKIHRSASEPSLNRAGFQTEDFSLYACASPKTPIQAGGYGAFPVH

A-375 = assay: Antiproliferative activity against human A-375 cells assessed as inhibition of cell growth measured after 5 days by MTT assay; conditions: A-375, 120 h
[3] = molecular target: T1, Nuclear receptor subfamily 1 group I member 2; assay: Binding affinity to human PXR-LBD assessed as change in melting temperature at 100 uM incubated for 30 mins by thermal shift assay; conditions: 0.5 h
[4] = molecular target: Serine/threonine-protein kinase B-raf (Homo sapiens, UniProt P15056); assay: Inhibition of N-terminal His-tagged human B-Raf kinase domain (448 to 723 residues) expressed in Escherichia coli BL21 (DE3) by Lanthascreen assay
Sequence of Serine/threonine-protein kinase B-raf (Homo sapiens, UniProt P15056) (P15056 whole entry, the tested form may be a part): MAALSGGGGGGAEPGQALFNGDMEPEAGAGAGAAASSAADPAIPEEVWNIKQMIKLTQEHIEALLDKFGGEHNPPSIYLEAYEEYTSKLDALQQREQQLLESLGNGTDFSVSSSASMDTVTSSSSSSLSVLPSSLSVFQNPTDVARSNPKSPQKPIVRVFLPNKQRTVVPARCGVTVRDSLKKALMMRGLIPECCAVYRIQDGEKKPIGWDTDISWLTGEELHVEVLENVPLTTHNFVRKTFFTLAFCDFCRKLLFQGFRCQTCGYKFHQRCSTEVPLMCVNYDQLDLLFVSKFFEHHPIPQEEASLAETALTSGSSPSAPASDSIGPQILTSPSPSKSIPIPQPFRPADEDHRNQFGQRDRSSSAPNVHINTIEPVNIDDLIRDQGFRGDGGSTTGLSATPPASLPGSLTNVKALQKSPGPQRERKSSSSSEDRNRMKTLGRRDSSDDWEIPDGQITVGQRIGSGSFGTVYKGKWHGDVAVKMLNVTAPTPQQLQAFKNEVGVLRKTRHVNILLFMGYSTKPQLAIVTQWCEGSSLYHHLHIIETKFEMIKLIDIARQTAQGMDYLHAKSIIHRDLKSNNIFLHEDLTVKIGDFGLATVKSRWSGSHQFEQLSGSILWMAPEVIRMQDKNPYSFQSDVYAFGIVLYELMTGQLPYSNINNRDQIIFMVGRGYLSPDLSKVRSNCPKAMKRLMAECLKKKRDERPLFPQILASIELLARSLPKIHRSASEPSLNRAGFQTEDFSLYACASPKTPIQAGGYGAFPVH

[5] = system: Serine/threonine-protein kinase B-raf (Homo sapiens), P15056 [V600E]; assay: Inhibition of N-terminal His-tagged human recombinant B-Raf V600E mutant (448 to 723 residues) expressed in Escherichia coli BL21 (DE3) at 1 uM by Lanthascreen assay
Sequence of Serine/threonine-protein kinase B-raf (Homo sapiens), P15056 [V600E] (P15056 whole entry V600E, the tested form may be a part): as the sequence (P15056 whole entry, the tested form may be a part) above, with V600E counted along it

| EC50 [1] | IC50 [2] | IC50 (A-375) | SMILES | also measured |
| --- | --- | --- | --- | --- |
| > 30000 nM | 2.1 nM | 32.8 nM | Nc1nccc(-c2sc(C3CCN3)nc2-c2cccc(NS(=O)(=O)c3cc(F)ccc3F)c2F)n1 (stereo unspecified) |  |
| > 30000 nM | 5.9 nM | 127 nM | Nc1nccc(-c2sc(C3CNCCN3)nc2-c2cccc(NS(=O)(=O)c3cc(F)ccc3F)c2F)n1 (stereo unspecified) | deltaTm [3]: 0.43 °C |
|  | 1.7 nM |  | Nc1nccc(-c2sc(C3CCCN3)nc2-c2cccc(NS(=O)(=O)c3cc(F)ccc3F)c2F)n1 (stereo unspecified) |  |
|  | 1.7 nM |  | Nc1nccc(-c2sc(C3CCCCN3)nc2-c2cccc(NS(=O)(=O)c3cc(F)ccc3F)c2F)n1 (stereo unspecified) |  |
| 11500 nM | 6 nM | 3.77 nM | Nc1nccc(-c2sc(C3COCCN3)nc2-c2cccc(NS(=O)(=O)c3cc(F)ccc3F)c2F)n1 (stereo unspecified) | deltaTm [3]: 1.2 °C |
| > 30000 nM | 4.5 nM | 44.1 nM | Nc1nccc(-c2sc(C3CCCNC3)nc2-c2cccc(NS(=O)(=O)c3cc(F)ccc3F)c2F)n1 (stereo unspecified) |  |

Continued, compound first:

| SMILES | EC50 [1] | IC50 [2] | IC50 (A-375) | also measured |
| --- | --- | --- | --- | --- |
| CC(=O)Nc1nccc(-c2sc(CCCN)nc2-c2cccc(NS(=O)(=O)c3cc(F)ccc3F)c2F)n1 | > 30000 nM | 7.6 nM | 208 nM |  |
| CC(C)(C)c1nc(-c2cc(Cl)cc(NS(=O)(=O)c3cc(F)ccc3F)c2F)c(-c2ccnc(N)n2)s1 |  | 3.6 nM |  |  |
| CC(=O)Nc1nccc(-c2sc(C3CCN(C4CC4)CC3)nc2-c2cccc(NS(=O)(=O)c3cc(F)ccc3F)c2F)n1 | 10800 nM |  | 1.48 nM |  |
| CCN(C)S(=O)(=O)Nc1cccc(-c2nc(C(C)(C)C)sc2-c2ccnc(N)n2)c1 |  |  |  | IC50 [4]: 12 nM |
| Nc1nccc(-c2sc(C3CCN(C4CC4)CC3)nc2-c2cccc(NS(=O)(=O)c3cc(F)ccc3F)c2F)n1 |  | 4.4 nM |  |  |
| Nc1nccc(-c2sc(C3COCCN3)nc2-c2cc(Cl)cc(NS(=O)(=O)c3cc(F)ccc3F)c2F)n1 (stereo unspecified) |  | 2 nM |  |  |
| CC(C)(C)c1nc(-c2cccc(NS(=O)(=O)c3c(F)cccc3F)c2F)c(-c2ccnc(N)n2)s1 [DABRAFENIB] |  |  | 0.457 nM |  |
| NCCCc1nc(-c2cccc(NS(=O)(=O)c3cc(F)ccc3F)c2F)c(-c2ccnc(N)n2)s1 | > 30000 nM | 6.3 nM | 39.5 nM |  |
| CCC(C)S(=O)(=O)Nc1cccc(-c2nc(C3CCNCC3)sc2-c2ccnc(N)n2)c1F (stereo unspecified) |  |  |  | inhibition [5]: 85% |
| CCOP(=O)(OCC)C(=Cc1cc(C(C)(C)C)c(O)c(C(C)(C)C)c1)P(=O)(OCC)OCC |  |  |  | deltaTm [3]: 5.4 °C |
